These results are taken from patent US20210292736A1, “PROTEIN LABELLING” (The Provost, Fellows, Scholars and other Members of Board …, priority 2020, published 2021).

The subject of test [1] is DUBs in HEK293T cell lysate. The test can be described thus: PR-619 equilibrium disruption assay. The format is biochemical, H. sapiens. Conditions: probe 1 pre-incubated with lysate 90 min, PR-619 titrated 0-100 μM, further 30 min, UV 2 min. The protocol:
(§1) (A) HEK 293T cell lysate (50 μg) was pre-incubated for 90 min with increasing concentrations of PR-619 before being labelled with the probe 1 (1 μg). (B) HEK 293T cell lysate (50 μg) was pre-incubated with probe 1 (1 μg) for 90 min before PR-619 was added at increasing concentrations. (C) HEK 293T cell lysate (50 μg) was incubated with Ub75CH2CH2Br and PR 619 (100 μM) was added to one sample. All samples were exposed to UV light (365 nm) for 2 min.
(§2) It was next set out to test the modulation of labelling using the known pan DUB inhibitor, PR-619 (X. Tian, N. S. Isamiddinova, R. J. Peroutka, S. J. Goldenberg, M. R. Mattern, B. Nicholson and C. Leach, Assay Drug Dev Technol, 2011, 9, 165-173). PR-619 was incubated with cell lysate for 30 min prior to the addition of probe 1 and the labelling was then carried out under optimised conditions with a 90 min pre-incubation time. […] This implies specificity of probe 1 towards DUBs. […] PR-619 was titrated into the mixture at increasing concentrations and incubated for a further 30 min before the addition of initiators and exposure to UV light (FIG. 4B). A parallel experiment was set up with the Ub75CH2CH2Br probe for comparison (FIG. 4C). […] (FIG. 4C, lanes 2 and 3). To check the integrity of the probe and cell lysate under these conditions a silver stain of the samples was also performed (FIG. 9). […]

Test [2] concerns DUBs in HEK293T cell lysate. The test can be described thus: PR-619 pre-incubation assay. The settings on record: lysate pre-incubated with increasing concentrations of PR-619, then probe 1 (1 μg) 90 min, UV 2 min. The format is biochemical, H. sapiens. Here is the method: as §1, §2
The subject of test [3] is DUBs in HEK 293T cell lysate. The test can be described thus: Thiol-ene labelling in HEK293T cell lysate (anti-HA western blot). In kind it is biochemical, H. sapiens. Conditions: NEM 10 mM (FIG. 3A lane 8 vs 4). Here is the method: Controls included using NEM (10 mM), the Ub75CH2CH2Br probe (1 μg) and a labelling excluding initiators. (B) HEK 293T cell lysate (50 μg) was pre-incubated for varying periods of time with probe 1 (1 μg) before exposure to UV light (365 nm) for 2 min.
After confirming reactivity with a recombinant DUB, probe 1 was tested in HEK293T cell lysate using conditions analogous to those described for the recombinant enzyme labelling (FIG. 3). […] Exposure time to UV light was optimised, with conditions tested from […] (FIG. 3A, lanes 2-7). No labelling is observed at the 0 minute time point (FIG. 3A, lane 2). There is no discernible difference between the 1 minute and 10 minute timepoints (FIG. 3A, lanes 3 and 4). […] Two further control experiments were performed to validate the need for free thiols and to compare to an existing probe. […] Covalent bond formation therefore requires free cysteine residues. A labelling reaction with the known HA-Ub75CH2CH2Br probe was subjected to the same conditions as the thiol-ene labelling to confirm there was no degradation of the lysate under these conditions (FIG. 3A, lanes 9 and 10).
It was next examined how the pre-incubation period affected the labelling pattern (FIG. 3B, lanes 1-5). It was reasoned that prior to activation, a binding equilibrium must be established between the probe and target enzymes to yield the rapid labelling observed. […]
In general terms: Immunoblotting shows a protein as a band on a membrane.

Another test deals with recombinant DUB OTUB1 (Homo sapiens, UniProt Q96FW1). The test is described as follows: Eosin Y visible light-mediated labelling of recombinant OTUB1. Further details: His. The settings on record: OTUB1 2 μg, probe 1 3 μg; 10 W white light from 50 cm vs UV 365 nm. In kind it is biochemical. Here is the method:
FIG. 13—labelling of OTUB1 (2 μg) with probe 1 (3 μg) visualised by anti-HA western blot. Samples were preincubated for 90 min at 37° C. before the addition of Eosin Y. Samples were incubated for a further 10 min at 37° C. in the dark (lane 3) in ambient light (lane 4) or exposed to a 10 W white light lamp from 10 cm (lane 5).
(§3) FIG. 18—comparative analysis of labelling using Eosin Y as the initiator relative to DPAP and MAP for recombinant enzymes OTUB1 (2 μg) and UCHL1 (2 μg), lanes 2-4 and 5-7, with probe 1 (3 μg) visualised by anti-HA western blot. Samples were preincubated for 90 min at 37° C. Lanes 3 and 6 were degassed for 2 min using N2 before the addition of DPAP and MAP or Eosin Y to the indicated samples. A further incubation was carried out for 10 min at 37° C. while lanes 3 and 6 were exposed to UV light (365 nm) and lanes 4, and 7 were exposed to a 10 W white light lamp from 50 cm.
Firstly, the reactivity of the probe with the recombinant DUB OTUB1 was assessed using Eosin Y as the sole photoinitiator (FIG. 13). Triethanolamine, or similar coinitiators, could be used in combination with Eosin Y. The reaction was initiated using ambient light or a 10 W white light bulb. As a control, an equivalent sample was kept in darkness for the duration of the experiment. […]

In the next test the target is T1, UCHL1 (Homo sapiens, UniProt P09936).
T1 sequence (P09936 1-223): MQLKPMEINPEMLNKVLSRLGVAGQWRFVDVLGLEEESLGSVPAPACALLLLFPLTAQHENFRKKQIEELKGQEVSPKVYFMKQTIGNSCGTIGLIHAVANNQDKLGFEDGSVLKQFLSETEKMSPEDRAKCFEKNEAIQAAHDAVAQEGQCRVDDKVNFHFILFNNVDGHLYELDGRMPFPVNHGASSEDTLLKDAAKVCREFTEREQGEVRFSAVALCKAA
The test can be described thus: Eosin Y visible light-mediated labelling of recombinant UCHL1. In kind it is biochemical. Conditions: UCHL1 2 μg, probe 1 3 μg; 10 W white light from 50 cm vs UV 365 nm. Here is the method: as §3
Once optimised, a comparative labelling was carried out between these optimised Eosin Y labelling conditions versus the conditions optimised for DPAP and MAP labelling (FIG. 18). At this point to check the generality of the method, a further DUB, UCHL1 was tested alongside OTUB1.
Probe 1 ([…]) was incubated with OTUB1 (0.2 μL, 13.78 μg/μL, in storage buffer) or UCHL1 (3.3 μL, 0.9 μg/μL, in storage buffer). The final volume of the labelling was adjusted to 30 μL with homogenisation buffer containing TCEP (1 mM). A stock solution of Eosin Y (0.29 mM in DMSO—homogenisation buffer, 4:1) was prepared fresh before use and protected from light. The reaction was preincubated for 90 min at 37° C. with gentle shaking before the addition of Eosin Y (0.5 μL of stock for recombinant enzyme labelling, final conc.=5 μM). […]

recombinant DUB OTUB1, sequence (Q96FW1 whole entry): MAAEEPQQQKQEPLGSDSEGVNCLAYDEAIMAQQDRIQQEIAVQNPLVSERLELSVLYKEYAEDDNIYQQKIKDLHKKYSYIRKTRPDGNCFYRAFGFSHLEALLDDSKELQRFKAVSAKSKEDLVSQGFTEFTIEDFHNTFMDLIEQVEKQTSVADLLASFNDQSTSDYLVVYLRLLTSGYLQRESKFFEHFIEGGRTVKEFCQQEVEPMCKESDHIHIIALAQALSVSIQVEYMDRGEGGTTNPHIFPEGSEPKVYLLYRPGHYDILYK

For the compound `N#CSc1cc(SC#N)c(N)nc1N` [PR-619], the “effect on probe 1 labelling, inhibitor added after binding equilibrium” value in test [1] was “abrogates the labelling in a concentration dependent manner”. In test [2], the “effect on probe 1 labelling intensity, inhibitor before probe” value is on record as “concentration-dependent reduction in labelling intensity”. Regarding `CCN1C(=O)C=CC1=O` [NEM, N-ethylmaleimide, reference compound], the “effect on probe 1 labelling” value in test [3] is “inhibited labelling”. `O=C([O-])c1ccccc1-c1c2cc(Br)c(=O)c(Br)c-2oc2c(Br)c([O-])c(Br)cc12.[Na+].[Na+]` [Eosin Y, reference compound]: the “probe capture with Eosin Y relative to DPAP and MAP” value on recombinant DUB OTUB1 and on UCHL1 was “probe capture was comparable” each time.
